Key:
[1] = system: Human neutrophils (fMLP chemotaxis); assay: Modified Boyden Chamber Chemotaxis, fMLP; format: cell-based; conditions: relative to the compound of Example 1 (b), defined as 1.0
Text: [The procedure below names another target; the source lists this target under the same test.] (§1) Neutrophils were purified from venous blood of normal human donors using standard techniques of dextran sedimentation, centrifugation on Ficoll-paque® (Pharmacia) or Histopaque® sterile solution (Sigma) and hypotonic lysis of erythrocytes (Boyum, A., Isolation of Leukocytes From Human Blood: Further Observations. Scand. J. Lab. Clin. Invest., 21 (Suppl. 97): 31, 1968). The purity of isolated neutrophils was>95%.
(§2) Human neutrophils were isolated from citrated peripheral blood using standard techniques of dextran sedimentation, followed by centrifugation on Histopaque® sterile solution (Sigma) or Ficoll-paque® (Pharmacia) and hypotonic lysis of erythrocytes. A final cell suspension of 3.4×10^6 neutrophils/ml of HEPES-buffered Hanks' balanced salt solution (HBSS, pH 7.3) was added to the upper well (0.8 ml ) of a modified Boyden chamber (blind well). The lower well (0.2 ml), separated by a polycarbonate membrane (Nucleopore Corp.), contained HBSS or 3×10^-8 M LTB4 in the presence or absence of test compound. […] The number of neutrophils migrating into the lower chamber in the absence of chemoattractant was subtracted from the number of cells migrating in the presence of a chemoattractant. Inhibition of chemotaxis by test compounds was expressed as percent inhibition relative to uninhibited control.
(§3) Data are expressed as potency relative to the compound of Example i(b ), 7-[3,(4-acetyl-3-methoxy-2propylphenoxy)propoxy]-3,4-dihydro-8-propyl-2H-1-benzopyran-2-carboxylic acid, which is disclosed in U.S. Pat. No. 4,889,871.

[2] = system: Human neutrophils (LTB4 chemotaxis); assay: Modified Boyden Chamber Chemotaxis, LTB4; format: cell-based; conditions: relative to the compound of Example 1 (b), defined as 1.0; 3×10^-8 M LTB4
Text: as §1, §2, §3

LTB4 Receptor = target: T1, LTB4 Receptor (Homo sapiens, UniProt Q15722); assay: LTB4 Receptor Binding Assay ((3H) LTB4, human neutrophils); conditions: relative to the compound of Example 1 (b), defined as 1.0
T1 construct: Neutrophils were purified from venous blood of normal human donors; endogenous in cells; host or cells: neutrophils from venous blood of normal human donors
T1 sequence (Q15722 whole entry): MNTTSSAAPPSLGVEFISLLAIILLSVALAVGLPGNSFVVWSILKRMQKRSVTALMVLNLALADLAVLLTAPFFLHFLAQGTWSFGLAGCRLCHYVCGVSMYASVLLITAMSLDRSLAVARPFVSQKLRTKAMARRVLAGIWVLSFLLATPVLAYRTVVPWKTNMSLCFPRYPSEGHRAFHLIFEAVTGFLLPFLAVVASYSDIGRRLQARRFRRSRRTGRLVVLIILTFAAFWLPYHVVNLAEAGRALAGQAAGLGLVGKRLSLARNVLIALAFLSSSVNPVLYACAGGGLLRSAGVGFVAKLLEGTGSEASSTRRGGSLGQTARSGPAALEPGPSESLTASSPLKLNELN
Procedure: as §1
Neutrophils (4-6×10^6) in 1 ml Hanks' balanced salt solution (HBSS) containing 10 mM HEPES buffer , pH 7.4 and […] nordihydroguaiaretic acid were incubated with 0.6×10^-9 M (^3 H) LTB4 in the presence or absence of test compounds. The incubation was carried out at 0° C. for 45 minutes and terminated by adding 5ml of ice-cold HBSS followed by rapid filtration of the incubation mixture under vacuum through GF/C glass fiber filters. The filters were further washed with 10 ml HBSS and radioactivity was determined. Specific binding was defined as the difference between total binding and nonspecific binding which was not displaced by 10^-7 M unlabeled LTB4. All data refer to specific binding.

Row | SMILES | Relative Potency, Chemotaxis fMLP [1] | Relative Potency, Chemotaxis LTB4 [2] | Relative Potency, LTB4 Receptor Binding (LTB4 Receptor)
1 | C=CCc1c(OCCCOc2ccc3c(c2CCC)OC(CCC(=O)O)CC3)ccc(C(=O)NC)c1OC (stereo not drawn) [Example 9, 3,4-Dihydro-7-[3-[3-methoxy-4-[(methylamino)carbonyl]-2-(2-propenyl)phenoxy]propoxy]8-propyl-2H-1-benzopyran-2-propanoic acid] | 0.38 | 12.3 | 8.9
2 | CCCc1c(OCCCOc2ccc(C(=O)NC)c(OC)c2CCC)ccc2c1OC(CCC(=O)O)CC2 (stereo not drawn) [Example 14, 3,4-Dihydro-7-[3-[3-methoxy-4-[(methylamino)carbonyl]-2-propylphenoxy]propoxy]-8-propyl-2H-1-benzopyran-2-propanoic acid] | 0.52 | 4.1 | 4.0
3 | CCCc1c(OCCCOc2ccc(C(=O)NC)c(OC)c2CC2CC2)ccc2c1OC(C(=O)O)CC2 (stereo not drawn) [Example 19, 7-[3-[2-(Cyclopropylmethyl)-3-methoxy-4-[(methylamino)carbonyl]phenoxy]propoxy]-3,4-dihydro-8-propyl-2H-1-benzopyran-2-carboxylic acid] | 1.57 | 16.9 | 5.3
4 | C=CCc1c(OCCCOc2ccc3c(c2CCC)OC(C(=O)O)CC3)ccc(C(=O)NC)c1OC (stereo not drawn) [Example 26, 3,4-Dihydro-7-[3-[3-methoxy-4-[(methylamino)carbonyl]-2-(2-propenyl)phenoxy]propoxy]-8-propyl 2H-1-benzopyran-2-carboxylic acid] | 0.95 | 7.6 | 2.1
5 | C=CCc1c(OCCCOc2ccc3c(c2CCC)OC(C(=O)O)CC3)ccc(C(=O)N2CCCC2)c1OC (stereo not drawn) [Example 29, 3,4-Dihydro-7-[3-[3-methoxy-2-(2-propenyl)-4-(1-pyrrolidinylcarbonyl)phenoxy]propoxy]-8-propyl-2H-1-benzopyran-2-carboxylic acid] | – | 0.18 | 1.0
6 | C=CCc1c(OCCCOc2ccc3c(c2CCC)OC(C(=O)O)CC3)ccc(C(N)=O)c1OC (stereo not drawn) [Example 32, 7-[3-[4-(Aminocarbonyl)-3-methoxy-2-(2-propenyl)phenoxy]propoxy]-3,4-dihydro-8-propyl-2H-1-benzopyran-2-carboxylic acid] | 1.5 | 4.0 | 2.1
7 | CCCc1c(OCCCOc2ccc(C(=O)NC)c(OC)c2CCC)ccc2c1OC(C(=O)O)CC2 (stereo not drawn) [Example 35, 3,4-Dihydro-7-[3-[3-methoxy-2-propyl-4-[(methylamino)carbonyl]phenoxy]propoxy]-8-propyl-2H-1-benzopyran-2-carboxylic acid] | – | 2.6 | 0.81
8 | CCCc1c(OCCCOc2ccc(C(N)=O)c(OC)c2CCC)cccc1OCC(=O)O [Example 43, [3-[3-[4-(Aminocarbonyl)-3-methoxy-2-propylphenoxy]propoxy]-2-propylphenoxy]acetic acid] | ≤ 0.63 | 1.1 | 0.83
9 | CCCc1c(OCCCOc2ccc(C(=O)NC)c(OC)c2CCC)cccc1OCC(=O)O [Example 46, [3-[3-[3-Methoxy-4-[(methylamino)carbonyl]-2-propylphenoxy]propoxy]-2-propylphenoxy]acetic acid] | ≤ 0.048 | 0.58 | 0.71
10 | CCCc1c(OCCCOc2ccc(C(=O)N3CCCC3)c(OC)c2CCC)cccc1OCC(=O)O [Example 50, [3-[3-[3-Methoxy-2-propyl-4-(1-pyrrolidinylcarbonyl)phenoxy]propoxy]2-propylphenoxy]acetic acid] | < 0.48 | 0.05 | 0.04
11 | C=CCc1c(OCCCOc2cccc(OCC(=O)O)c2CCC)ccc(C(N)=O)c1OC [Example 56, [3-[3-[4-(Aminocarbonyl)-3-methoxy-2-(2-propenyl)phenoxy]propoxy]-2-propylphenoxy] acetic acid] | < 0.63 | 2.6 | 1.0
12 | C=CCc1c(OCCCOc2cccc(OCC(=O)O)c2CCC)ccc(C(=O)N2CCCC2)c1OC [Example 59, [3-[3-[3-Methoxy-2-(2-propenyl)-4-(1-pyrrolidinylcarbonyl)phenoxy]propoxy]-2-propylphenoxy]acetic acid] | – | < 0.9 | 0.04
13 | CCCc1c(OCCCOc2ccc(C(=O)NC)c(OC)c2CC2CC2)ccc2c1OC(CCC(=O)O)CC2 (stereo not drawn) [Example 62, 7-[3-[2-(Cyclopropylmethyl)-3-methoxy-4-[(methylamino)carbonyl]phenoxy]propoxy]-3,4-dihydro-8-propyl-2H-1-benzopyran-2-propanoic acid] | 0.69 | 17.4 | 8.5
